From patent publication US6835401B2, “Method of treating diseases caused by over-production of free-radicals” (Pharmaton SA, priority 2000, dated 2004)

System: glutathione peroxidase (GSH-PX)
Experiment: Glutathione peroxidase (GSH-PX) activity in keratinocytes
Type: cell-based, human
Details: 50 nM Se (sodium selenite 50 nM; selenium yeast 3.95 μg/ml), control cells
Description: Cultures were maintained at 37° C. in a humidified 5% CO2 atmosphere.

O=[Se](O)O [sodium selenite]
GSH-PX activity: 91.44±10.37 mU/mg protein | induction of GSH-PX activity, fold increase vs controls (48 h): 3.365 fold
